Reference: publication PMC8838898, “Identification of Novel Cannabinoid CB2 Receptor Agonists from Botanical Compounds and Preliminary Evaluation of Their Anti-Osteoporotic Effects” (Molecules, 2022)

How the values were obtained:
CB2R = molecular target: T1, CB2R (Homo sapiens, UniProt P34972); experiment: double luciferase reporter screening system in HEK293-CB2 cells; type: cell-based; settings: 1 μM, 6-h treatment
T1 construct: expressed in transfected cells; host or cells: HEK293 cells stably transfected with pIRES2-EGFP-CB2, pGL4.29 [luc2P/CRE/Hygro] and pRL-TK
Description: To generate the HEK293-CB2 cells, 5 × 10^5 HEK293 cells were cultured in a 60 mm culture dish for 12 h, washed with PBS, and then transfected with Lipofectamine 3000 reagent containing a test reporter plasmid, control reporter plasmid encoding Renilla luciferase, and effector plasmid. The ratio of the transfection plasmid pIRES2-EGFP-CB2, pGL4.29 [luc2P/CRE/Hygro], and pRL-TK was 2 μg, 10 μg, and 1μg, respectively. After a 24-htransfection, cells were selected and cultured in the medium containing G418 (800 μg·mL^−1) and hygromycin (400 μg·mL^−1) for two weeks. The surviving cells were picked and expanded as HEK293-CB2R cells.
Several aspects of the high-throughput screening system were optimized to ensure efficient and accurate application of the system for high-throughput data collection. To conduct high-throughput assays in 96-well plates, the number of cells seeded per well, incubation time, drug and AM630 concentrations, and the DMSO content were optimized. The dual luciferase assay was performed as described previously. […] Subsequently, the quantitative evaluation indexes of the high-throughput screening system, including the signal-to-background ratio, S/B = Msignal/Mbackground; signal window, SW = Msignal − Mbackground; signal-to-noise ratio, S/N = (Msignal − Mbackground)/SDbackground; signal background coefficient of variation, CV(%) = 100 × SDsignal/Msignal; and Z’ factor were determined to ensure its efficient and accurate application of the system in high-throughput data collection. Here, Z′ = 1 − 3(SDsignal + SDbackground)/|Msignal − Mbackground| [25], where M represents an average of the relative luminescence value and SD is the standard deviation of M.
The HEK293-CB2 cells from 10–40 passages were separately inoculated into 96-well plates at 5 × 10^3 cells per well. […] The results were expressed as relative luminescence values.
The HEK293-CB2 cells were inoculated on a 96-well culture plate with a density of 5 × 10^3 cells per well. […] The relative luminescence value was used to express the expression of CB2R.
Furthermore, the activation of the compounds on CB2R was also verified by using the CB2R inverse agonist AM630. The HEK293-CB2 cells were inoculated on a 6-well culture plate at a density of 5 × 10^4 cells per well. […] The expression of the CB2R gene is expressed by the relative luminescence value.

RAW264.7 macrophages = experiment: viability of RAW264.7 macrophages (CCK8); type: cell-based, murine; settings: 1 μM, three days
Description: The murine macrophage RAW264.7 cell line, which has the potential to differentiate into osteoclasts under the induction of RANKL, was obtained from the Cell Bank of the Chinese Academy of Sciences (Shanghai, China). The cells were cultured in DMEM containing 10% (v/v), 1% (v/v) penicillin, and streptomycin (Beyotime, Shanghai, China) at 37 °C in humidified air with 5% CO2, and then subcultured every two days. For induction of the osteoclasts, RAW264.7 cells were incubated with 25 ng·mL^−1 RANKL for 72 h. Osteoclasts were identified by TRAP staining.
RAW264.7 cells were inoculated in a 96-well plate at a density of 1 × 10^4 cells per well. After a 24-h culture at 37 °C, cells were treated with the test compounds for 48 h and cell viability was determined with the CCK-8 kit according to the instructions. RAW264.7 cells were inoculated on a 96-well culture plate at a density of 1 × 10^4 cells per well, induced with […] of nuclear factor-κB receptor activator ligand (RANKL) to differentiate into osteoclasts for 72 h. […] The reaction was terminated with 1 mol·L^−1 of NaOH solution (100 μL per well) and the absorbance was determined at a wavelength of 405 nm. […]

[1] = test system: osteoclasts derived from RAW264.7 cells; experiment: F-actin ring formation assay in osteoclasts; type: cell-based, murine
Description: RAW264.7 cells were incubated in a confocal culture dish (diameter, 35 mm) at adensity of 5 × 10^4 cells·dish^−1 for 24 h, treated with 25 ng·mL^−1 RANKL and the screened compounds for five days, fixed with 4% paraformaldehyde for 30 min, stained with 5 μg·mL^−1 rhodamine-conjugated phalloidin (Sigma-Aldrich Chemical Co.) at 37 °C for 40 min, washed with PBS again, and stained again with 4′,6-diamidino-2-phenylindole (DAPI, Beyotime, Shanghai, China) for 10 min at room temperature (Li et al., 2018). The F-actin ring of the osteoclasts was observed under a fluorescent microscope (Axiovert 200, Carl Zeiss, Oberkochen, Germany). The fluorescence images of the cells were processed using Zeiss ZEN software.

T1 sequence (P34972 whole entry): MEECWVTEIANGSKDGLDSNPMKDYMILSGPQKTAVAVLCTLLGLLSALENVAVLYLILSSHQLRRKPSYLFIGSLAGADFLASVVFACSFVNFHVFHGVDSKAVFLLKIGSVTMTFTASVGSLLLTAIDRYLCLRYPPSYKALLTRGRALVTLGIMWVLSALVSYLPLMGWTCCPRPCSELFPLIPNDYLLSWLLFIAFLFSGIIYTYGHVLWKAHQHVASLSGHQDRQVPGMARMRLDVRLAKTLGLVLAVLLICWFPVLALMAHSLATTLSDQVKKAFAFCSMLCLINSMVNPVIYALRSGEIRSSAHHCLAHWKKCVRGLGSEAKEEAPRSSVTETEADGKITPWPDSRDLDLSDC

CCCCCCC(C)(C)c1cc(OC)c([C@@H]2C=C(CO)[C@@H]3C[C@H]2C3(C)C)c(OC)c1 [HU308]
luciferase activity of HEK293-CB2 cells of passages 10, 15, 25, 35 and 40 (CB2R): significantly increased
viability of RAW264.7 macrophages (RAW264.7 macrophages): had no inhibitory effects on the viability
reversal of the F-actin ring effect by AM630 ([1]; 1 μM AM630): could also be reversed by AM630
formation of the F-actin ring in osteoclasts ([1]; five-day treatment, phalloidin staining): decreased the formation of the F-actin ring
